{"source": "patent US10697960B2", "about": "“CXCR4 and ROBO1 expression as markers for autoimmune diabetes” (BOARD OF SUPERVISORS OR LOUISANA STATE UNIVERSITY AND …, priority 2012, dated 2020)", "key": {"[1]": {"system": "NOD/ShiLtJ T cells on MS1 endothelial cells", "assay": "Anti-ROBO1 T cell detachment assay on MS1 endothelial monolayers under step-wise shear stress", "type": "cell-based, mouse", "details": "TNFα stimulation of MS1 cells versus unstimulated control", "experimental": "T cell detachment assays were performed as otherwise described in C. Sharp et al. (2008). T cells were injected into the tubing via an inlet port upstream of the flow chamber at a concentration of 2×10^6 cells/ml and allowed to firmly adhere under static conditions for 15 minutes. Next, shear stress was initiated and increased in a step-wise manner every 30 seconds as follows: 35, 56, 91, 224, 504, and 980 mPa. The assay was recorded by video, which was analyzed to determine the percentage of cells detached at the end of each shear stress interval. For the anti-ROBO1 detachment assay, MS1 cells were treated for […] at 37° C. with TNFα as described above and then with 100 ng/ml recombinant mouse SDF-1α (460-SD; R&D Systems). T cells were pre-treated for 30 minutes at 37° C. with 20 μg/ml ROBO1 blocking antibody (GT15144; Neuromics, Edina, Minn., USA) or isotype control (GT15900; Neuromics).\nHaving established that T cell levels of ROBO1 differ between C57BL/6J and NOD/ShiLtJ mice, we investigated whether SDF-1-mediated firm adhesion defects were dependent on ROBO1-SLIT2 binding. We used a parallel plate flow chamber detachment assay. NOD/ShiLtJ T cells were first allowed to statically adhere to islet endothelial cell monolayers. […]"}, "[2]": {"system": "NOD/ShiLtJ T cells on TNFα-activated MS1 islet endothelial cells", "assay": "Parallel plate flow chamber T cell adhesion assay with SDF-1 peptide mimetic", "type": "cell-based, mouse", "details": "MS1 cells treated 4 hours with 10 ng/ml TNFα; 150 mPa", "experimental": "Hydrodynamic flow chamber assays were performed as otherwise described in C. Sharp et al. (2008). Briefly, T cells isolated as described above were labeled with CellTracker Green (C7025; Life Technologies, Carlsbad, Calif., USA), rinsed, and resuspended at a concentration of 2×10^6 cells/ml in phenol red-free Hanks' balanced salt solution (HBSS). The cells were placed in a beaker that had been previously coated with Sigmacote (Sigma-Aldrich), kept at 37° C., and stirred at 60 rev/min. A flow chamber insert and gasket with a 0.5 cm flow width and 250 μm thickness (GlycoTech, Gaithersburg, Md., USA) were used with 35 mm cell culture dishes containing confluent MS1 cell cultures to form a parallel plate flow chamber. To activate endothelial cells, MS1 cells were treated for 4 to 6 hours at 37° C. with 10 ng/ml recombinant mouse TNFα (T7539; Sigma).\nFor the SDF-1 peptide mimetic T cell adhesion assay, MS1 cells were rinsed with HBSS and treated for 10 minutes with an SDF-1 peptide mimetic (AYWKENKEQ with two branched lysines as a linker between the two motifs, SEQ ID NO 1) at […]. This peptide was a linearized version of a cyclized SDF-1 analogue reported by Tudan et al., “C-terminal cyclization of an SDF-1 small peptide analogue dramatically increases receptor affinity and activation of CXCR4 receptor,” J. Med. Chem., vol. 45, pp. 2024-31 (2002). T cells were pumped through polypropylene tubing by a syringe pump (KD Scientific, Holliston, Mass., USA) across the endothelial monolayer at a physiological shear stress of 150 mPa. Real-time digital video images (minimum 28 frames/second) were captured with an epifluorescence microscope (TE-2000 Eclipse; Nikon, Tokyo, Japan) and digital camera (Model C4742-95-12ER: Hamamatsu Photonics, Hamamatsu, Japan). Simple PCI software (Hamamatsu Photonics) was used to analyze the video and to measure T cell rolling velocities. Cells were considered firmly adherent if they remained stationary for 10 seconds within the field of view. A minimum of three videos per plate and four plates per condition were used for analysis.\nWe examined whether a linear SDF-1 peptide mimetic containing the receptor-binding site could replicate the effect of full length SDF-1 in blocking adhesion of T cells to activated endothelium. MS1 cells were treated for 4 hours with 10 ng/ml TNFα, followed by treatment for 10 minutes with an SDF-1 peptide mimetic at 200, 1000, or 5000 ng/ml. Cells were then tested in a parallel plate flow chamber cell adhesion assay. Fluorescently labeled T cells obtained from NOD/ShiLtJ mice flowed over the endothelial monolayers at 150 mPa. […] Leucocyte adhesion videos were analyzed to calculate T cell rolling velocity and to determine whether the decrease in firm adhesion was due to a decreased number of rolling cells."}}, "note": "“Also recorded” adds a separate entry of the source."}
{"substance": "TNFα", "values": [{"measurement": "T cell attachment / resistance to shear-mediated detachment", "setting": "[1]", "result": "increased attachment; also recorded: increased the resistance of T cells to shear-mediated detachment"}, {"measurement": "TNFα-induced adhesion versus untreated endothelium", "setting": "[2]", "result": "five times greater"}]}
